In ChEMBL document CHEMBL4834444, “Discovery of novel N-1 substituted pyrazolopyrimidinones as potent, selective PDE2 inhibitors” (Bioorg Med Chem Lett, 2021):
Values after ≈ are worked out from the molar mass of the structure shown.

How the values were obtained:
[1] = Kinetic solubility of compound in FaSSIF; format: physicochemical; settings: read-out: Kinetic_solubility
[2] = Inhibition of human PDE1
Cytochrome P450 2C9 = Cytochrome P450 2C9 (Homo sapiens, UniProt P11712); experiment: Inhibition of CYP2C9 (unknown origin); format: ADME
Chain of Cytochrome P450 2C9 (P11712 whole entry): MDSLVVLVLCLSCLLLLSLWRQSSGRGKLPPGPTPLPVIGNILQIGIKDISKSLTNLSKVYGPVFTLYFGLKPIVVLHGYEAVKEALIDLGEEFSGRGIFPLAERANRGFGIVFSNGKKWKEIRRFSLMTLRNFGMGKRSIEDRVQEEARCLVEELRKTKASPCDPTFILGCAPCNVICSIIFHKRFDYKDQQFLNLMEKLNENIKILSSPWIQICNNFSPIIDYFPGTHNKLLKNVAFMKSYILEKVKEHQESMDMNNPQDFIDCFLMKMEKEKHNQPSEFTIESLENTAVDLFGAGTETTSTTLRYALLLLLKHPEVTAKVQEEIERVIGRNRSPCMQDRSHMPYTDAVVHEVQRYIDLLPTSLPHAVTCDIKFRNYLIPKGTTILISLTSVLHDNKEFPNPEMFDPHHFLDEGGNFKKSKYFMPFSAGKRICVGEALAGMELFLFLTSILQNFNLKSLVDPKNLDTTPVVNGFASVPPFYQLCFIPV

[3] = biological target: Dual 3',5'-cyclic-AMP and -GMP phosphodiesterase 11A (Homo sapiens, UniProt Q9HCR9); experiment: Inhibition of human PDE11
Chain of Dual 3',5'-cyclic-AMP and -GMP phosphodiesterase 11A (Q9HCR9 whole entry): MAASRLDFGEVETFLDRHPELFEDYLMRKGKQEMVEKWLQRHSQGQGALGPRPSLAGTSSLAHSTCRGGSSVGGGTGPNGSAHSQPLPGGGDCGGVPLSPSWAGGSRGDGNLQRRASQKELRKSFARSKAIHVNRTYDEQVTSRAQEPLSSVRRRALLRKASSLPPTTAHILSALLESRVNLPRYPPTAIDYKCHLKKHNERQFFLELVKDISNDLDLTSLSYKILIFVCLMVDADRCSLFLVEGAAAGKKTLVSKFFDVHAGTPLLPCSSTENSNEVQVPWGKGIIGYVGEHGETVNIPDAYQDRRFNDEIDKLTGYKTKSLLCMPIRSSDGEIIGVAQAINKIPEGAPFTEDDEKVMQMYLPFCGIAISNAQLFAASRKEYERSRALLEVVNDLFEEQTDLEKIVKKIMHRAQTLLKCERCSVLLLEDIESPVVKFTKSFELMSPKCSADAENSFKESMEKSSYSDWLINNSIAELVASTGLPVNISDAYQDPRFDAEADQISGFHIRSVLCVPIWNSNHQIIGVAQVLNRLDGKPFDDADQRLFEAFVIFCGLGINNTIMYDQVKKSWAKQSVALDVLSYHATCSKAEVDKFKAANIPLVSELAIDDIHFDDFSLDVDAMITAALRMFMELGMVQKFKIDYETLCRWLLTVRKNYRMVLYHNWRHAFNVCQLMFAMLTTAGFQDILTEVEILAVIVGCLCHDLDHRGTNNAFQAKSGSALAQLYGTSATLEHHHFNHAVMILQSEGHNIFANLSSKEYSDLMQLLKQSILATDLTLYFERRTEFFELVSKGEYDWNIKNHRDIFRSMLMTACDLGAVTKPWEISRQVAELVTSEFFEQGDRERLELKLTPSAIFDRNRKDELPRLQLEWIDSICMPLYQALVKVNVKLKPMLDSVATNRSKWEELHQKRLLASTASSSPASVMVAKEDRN

[4] = biological target: T1, PXR (nuclear receptor subfamily 1 group I member 2) (Homo sapiens, UniProt O75469); experiment: Inhibition of human PXR at 10 uM
T1 sequence (O75469 whole entry): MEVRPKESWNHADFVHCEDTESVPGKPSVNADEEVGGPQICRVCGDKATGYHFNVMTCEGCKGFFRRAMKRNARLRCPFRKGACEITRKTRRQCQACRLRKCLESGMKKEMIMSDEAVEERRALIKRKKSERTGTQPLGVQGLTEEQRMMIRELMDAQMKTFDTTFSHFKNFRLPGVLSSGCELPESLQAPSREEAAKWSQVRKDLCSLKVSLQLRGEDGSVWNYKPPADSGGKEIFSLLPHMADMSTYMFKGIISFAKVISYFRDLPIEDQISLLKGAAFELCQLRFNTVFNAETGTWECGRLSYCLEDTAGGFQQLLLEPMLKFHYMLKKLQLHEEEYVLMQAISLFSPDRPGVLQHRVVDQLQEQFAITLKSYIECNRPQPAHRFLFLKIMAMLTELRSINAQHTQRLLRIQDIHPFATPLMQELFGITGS

Homo sapiens = organism: Homo sapiens; experiment: Inhibition of Ion channel (unknown origin)
[5] = biological target: High affinity cGMP-specific 3',5'-cyclic phosphodiesterase 9A (Homo sapiens, UniProt O76083); experiment: Inhibition of human PDE9
Chain of High affinity cGMP-specific 3',5'-cyclic phosphodiesterase 9A (O76083 whole entry): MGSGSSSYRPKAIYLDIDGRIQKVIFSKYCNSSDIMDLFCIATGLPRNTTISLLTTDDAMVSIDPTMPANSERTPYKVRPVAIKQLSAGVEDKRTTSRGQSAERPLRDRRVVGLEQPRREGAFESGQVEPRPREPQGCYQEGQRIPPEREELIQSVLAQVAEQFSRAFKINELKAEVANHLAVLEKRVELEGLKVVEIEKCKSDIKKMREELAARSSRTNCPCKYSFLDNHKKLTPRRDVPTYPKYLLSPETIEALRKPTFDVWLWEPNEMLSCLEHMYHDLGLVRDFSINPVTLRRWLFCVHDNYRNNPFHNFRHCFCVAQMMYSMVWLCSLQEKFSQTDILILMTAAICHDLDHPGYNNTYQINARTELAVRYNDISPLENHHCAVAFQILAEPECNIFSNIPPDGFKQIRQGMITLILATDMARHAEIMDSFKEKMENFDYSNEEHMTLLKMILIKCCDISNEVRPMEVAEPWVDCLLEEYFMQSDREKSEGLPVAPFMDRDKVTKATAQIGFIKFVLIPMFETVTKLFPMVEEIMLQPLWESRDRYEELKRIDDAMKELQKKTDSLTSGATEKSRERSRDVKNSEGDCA

Cytochrome P450 3A4 = Cytochrome P450 3A4 (Homo sapiens, UniProt P08684); experiment: Inhibition of CYP3A4 (unknown origin); format: ADME
Chain of Cytochrome P450 3A4 (P08684 whole entry): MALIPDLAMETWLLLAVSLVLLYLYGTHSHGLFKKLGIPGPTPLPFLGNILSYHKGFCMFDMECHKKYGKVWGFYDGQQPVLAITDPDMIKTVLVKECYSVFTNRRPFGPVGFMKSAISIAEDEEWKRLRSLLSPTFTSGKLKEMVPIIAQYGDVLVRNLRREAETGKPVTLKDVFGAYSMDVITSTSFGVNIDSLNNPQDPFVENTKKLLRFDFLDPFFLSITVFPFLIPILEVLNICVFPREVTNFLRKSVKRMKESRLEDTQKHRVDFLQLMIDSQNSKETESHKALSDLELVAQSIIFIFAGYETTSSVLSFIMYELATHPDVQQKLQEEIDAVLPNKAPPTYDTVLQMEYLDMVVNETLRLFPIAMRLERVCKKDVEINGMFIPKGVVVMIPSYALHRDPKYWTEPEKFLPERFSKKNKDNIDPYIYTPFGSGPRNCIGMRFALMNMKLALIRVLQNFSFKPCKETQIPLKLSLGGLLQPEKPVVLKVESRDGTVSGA

[6] = Plasma protein binding in rat assessed as unbound fraction; format: ADME, cell-free
[7] = Kinetic solubility of compound at pH 7; format: physicochemical; settings: buffer, read-out: Kinetic_solubility
[8] = Half life in rat; format: ADME; settings: in vivo
[9] = Kinetic solubility of compound at pH 2; format: physicochemical; settings: buffer, read-out: Kinetic_solubility
Phosphodiesterase 6 = experiment: Inhibition of human PDE6; format: protein assay
[10] = Plasma protein binding in rhesus monkey assessed as unbound fraction; format: ADME, cell-free, Macaca mulatta
[11] = Mean residence time in rat; format: ADME; settings: in vivo
[12] = biological target: cGMP-specific 3',5'-cyclic phosphodiesterase (Homo sapiens, UniProt O76074); experiment: Inhibition of human PDE5
[13] = Plasma protein binding in human assessed as unbound fraction; format: ADME, cell-free
[14] = Inhibition of human PDE8
[15] = Plasma clearance in rat; format: ADME
[16] = biological target: cAMP and cAMP-inhibited cGMP 3',5'-cyclic phosphodiesterase 10A (Homo sapiens, UniProt Q9Y233); experiment: Inhibition of human PDE10
Chain of cAMP and cAMP-inhibited cGMP 3',5'-cyclic phosphodiesterase 10A (Q9Y233 whole entry): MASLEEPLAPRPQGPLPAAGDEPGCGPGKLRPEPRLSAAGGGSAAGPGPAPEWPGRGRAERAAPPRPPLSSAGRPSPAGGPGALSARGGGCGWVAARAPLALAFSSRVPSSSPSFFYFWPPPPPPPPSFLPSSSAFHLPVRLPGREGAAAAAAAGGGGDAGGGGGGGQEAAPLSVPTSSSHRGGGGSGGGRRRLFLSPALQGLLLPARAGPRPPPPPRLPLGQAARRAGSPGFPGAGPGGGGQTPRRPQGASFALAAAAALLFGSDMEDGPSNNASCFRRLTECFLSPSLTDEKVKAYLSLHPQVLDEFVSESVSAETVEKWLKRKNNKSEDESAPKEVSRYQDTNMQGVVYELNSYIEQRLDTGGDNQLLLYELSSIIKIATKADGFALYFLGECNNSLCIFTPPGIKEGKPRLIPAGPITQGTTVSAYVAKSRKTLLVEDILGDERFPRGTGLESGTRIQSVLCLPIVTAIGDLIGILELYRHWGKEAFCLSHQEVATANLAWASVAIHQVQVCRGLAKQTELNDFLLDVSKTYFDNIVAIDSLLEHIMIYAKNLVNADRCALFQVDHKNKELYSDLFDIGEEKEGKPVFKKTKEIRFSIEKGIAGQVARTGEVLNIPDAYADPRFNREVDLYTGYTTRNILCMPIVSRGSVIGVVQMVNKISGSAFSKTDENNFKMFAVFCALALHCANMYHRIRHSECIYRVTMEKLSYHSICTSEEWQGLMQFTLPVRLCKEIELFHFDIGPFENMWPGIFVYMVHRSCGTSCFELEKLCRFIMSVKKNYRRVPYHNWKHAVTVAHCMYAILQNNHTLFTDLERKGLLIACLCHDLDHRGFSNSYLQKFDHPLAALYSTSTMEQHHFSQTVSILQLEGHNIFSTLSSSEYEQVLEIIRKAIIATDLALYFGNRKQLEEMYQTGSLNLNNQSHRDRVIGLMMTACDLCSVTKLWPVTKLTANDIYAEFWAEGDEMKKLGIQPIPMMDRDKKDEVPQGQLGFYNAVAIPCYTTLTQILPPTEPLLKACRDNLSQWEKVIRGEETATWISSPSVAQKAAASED

Phosphodiesterase 7 = Phosphodiesterase 7 (Homo sapiens, UniProt Q13946+Q9NP56); experiment: Inhibition of human PDE7; format: protein assay
Cytochrome P450 2D6 = Cytochrome P450 2D6 (Homo sapiens, UniProt P10635); experiment: Inhibition of CYP2D6 (unknown origin); format: ADME
Chain of Cytochrome P450 2D6 (P10635 whole entry): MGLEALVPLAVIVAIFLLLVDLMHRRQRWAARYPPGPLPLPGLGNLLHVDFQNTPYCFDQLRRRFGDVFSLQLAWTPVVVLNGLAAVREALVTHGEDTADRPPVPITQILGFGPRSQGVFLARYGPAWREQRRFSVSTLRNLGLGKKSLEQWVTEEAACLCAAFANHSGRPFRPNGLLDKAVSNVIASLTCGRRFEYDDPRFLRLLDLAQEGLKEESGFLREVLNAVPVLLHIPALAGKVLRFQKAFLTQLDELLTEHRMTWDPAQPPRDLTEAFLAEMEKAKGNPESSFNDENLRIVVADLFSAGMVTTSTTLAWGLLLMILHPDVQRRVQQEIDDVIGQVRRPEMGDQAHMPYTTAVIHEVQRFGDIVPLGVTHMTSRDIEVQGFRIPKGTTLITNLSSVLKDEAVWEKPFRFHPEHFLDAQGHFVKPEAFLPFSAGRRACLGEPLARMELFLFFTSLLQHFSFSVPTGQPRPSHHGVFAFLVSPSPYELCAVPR

[17] = Inhibition of human PDE3
Phosphodiesterase 4 = Phosphodiesterase 4 (Homo sapiens, UniProt P27815+Q08499+Q07343+Q08493); experiment: Inhibition of human PDE4; format: protein assay

solubility kinetic [1] [µM]	IC50 [2] [µM]	INH (Cytochrome P450 2C9) [µM]	IC50 [3] [µM]	inhibition at 10 µM [4] [%]	INH (Homo sapiens) [µM]	IC50 [5] [µM]	INH (Cytochrome P450 3A4) [µM]	fraction unbound [6]	solubility kinetic [7] [µM]	half-life [8] [h]	solubility kinetic [9] [µM]	IC50 (Phosphodiesterase 6) [µM]	fraction unbound [10]	MRT [11] [h]	IC50 [12] [µM]	fraction unbound [13]	IC50 [14] [µM]	clearance [15] [mL/min/kg]	IC50 [16] [µM]	Structure (SMILES)	other results
177 (≈ 63.1 µg/mL)	> 60	> 50	0.6	45	17	> 50	> 50	0.014	20 (≈ 7.13 µg/mL)	1.4	60 (≈ 21.4 µg/mL)	11	0.016	0.8	21	0.009	> 50	49	5.8	Cc1nc2c([C@H](C)c3ccc(C(C)(C)C)cc3)nn(CCF)c2c(=O)[nH]1	IC50 (Phosphodiesterase 7): > 75 µM; INH (Cytochrome P450 2D6): > 50 µM; IC50 [17]: 5.7 µM; IC50 (Phosphodiesterase 4): 3.3 µM
148 (≈ 56.9 µg/mL)	> 60	> 50	6.2	16	9.6	> 50	44	0.049	115 (≈ 44.2 µg/mL)	3.1	117 (≈ 45 µg/mL)	27	0.035	2.5	23	0.03	> 50	24	18	Cc1nc2c([C@H](C)c3ccc(C(F)(F)F)c(F)c3)nn(CCO)c2c(=O)[nH]1	IC50 (Phosphodiesterase 7): > 75 µM; INH (Cytochrome P450 2D6): > 50 µM; IC50 [17]: 1.8 µM; IC50 (Phosphodiesterase 4): 3.5 µM
